ChEMBL document CHEMBL1201862, “PubChem BioAssay data set” (2004)
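A five-concentration, 48-hour dose response in 96-well plates underlies each endpoint, interpolated linearly between surrounding concentrations. The concentration for 50% growth inhibition is given as GI50.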 The source made the active and inactive calls. No stated cut-off is given here; in the data, active = GI50 up to about 1.1 µM and inactive = higher.

Assays:
Experiment in all cases: NCI anticancer screen, dose series, 48 h
[1] = tested on: Hs-578T
[2] = tested on: IGROV-1
[3] = tested on: TK-10
[4] = tested on: SW-620
[5] = tested on: NCI-H226
[6] = tested on: CCRF-CEM
[7] = tested on: HT-29
[8] = tested on: Malme-3M
[9] = tested on: RXF 393
[10] = tested on: A549
[11] = tested on: A498
[12] = tested on: HCC 2998
[13] = tested on: U-251
[14] = tested on: NCI-H23
[15] = tested on: NCI-H460
[16] = tested on: MOLT-4
[17] = tested on: SK-MEL-28
[18] = tested on: SK-MEL-5

Which results are given for `Brc1cccc(/C=C/CN2CCN(CCOC(c3ccccc3)c3ccccc3)CC2)c1`?
GI50 [1]: 22.1 µM (inactive); GI50 [2]: 15.9 µM (inactive); GI50 [3]: 19.3 µM (inactive); GI50 [4]: 17.8 µM (inactive); GI50 [5]: 19 µM (inactive); GI50 [6]: 11.1 µM (inactive); GI50 [7]: 6.22 µM (inactive); GI50 [8]: 16.1 µM (inactive); GI50 [9]: 11.6 µM (inactive); GI50 [10]: 15.5 µM (inactive); GI50 [11]: 17.5 µM (inactive); GI50 [12]: 8.53 µM (inactive); GI50 [13]: 13.6 µM (inactive); GI50 [14]: 16.5 µM (inactive); GI50 [15]: 13.3 µM (inactive); GI50 [16]: 8.47 µM (inactive); GI50 [17]: 17.8 µM (inactive); GI50 [18]: 15.1 µM (inactive)

For `CN(C)CCn1c(=O)c2ccc(NCCCN(C)CCCNc3ccc4c(=O)n(CCN(C)C)c(=O)n5c6ccc(O)cc6c(=O)c3c45)c3c(=O)c4cc(O)ccc4n(c1=O)c23`, which GI50 [1] is on record?
The GI50 was 0.0234 µM (active).

And the GI50 [2]?
The GI50 was < 0.01 µM (active).

And the GI50 [3]?
The GI50 was < 0.0126 µM (active).

And the GI50 [4]?
The GI50 was < 0.01 µM (active).

What about the GI50 [5] of the same compound?
The GI50 was < 0.01 µM (active).

And the GI50 [6]?
The GI50 was < 0.01 µM (active).

And the GI50 [7]?
The GI50 was < 0.01 µM (active).

And the GI50 [8]?
The GI50 was 0.0659 µM (active).

And the GI50 [9]?
The GI50 was < 0.0125 µM (active).

What about the GI50 [10] of the same compound?
Its GI50 is < 0.01 µM (active).

What about the GI50 [11] of the same compound?
The GI50 was 0.0289 µM (active).

And the GI50 [12]?
The GI50 was < 0.0151 µM (active).

What about the GI50 [13] of the same compound?
The GI50 was < 0.01 µM (active).

And the GI50 [14]?
The GI50 was < 0.01 µM (active).

And the GI50 [15]?
The GI50 was < 0.01 µM (active).

And the GI50 [16]?
Its GI50 is < 0.01 µM (active).

What about the GI50 [17] of the same compound?
The GI50 was 0.0841 µM (active).

And the GI50 [18]?
Its GI50 is < 0.01 µM (active).

With `O=c1c2ccccc2sc2cccc(NCCCN3CCN(CCCNc4cccc5sc6ccccc6c(=O)c45)CC3)c12` as the compound, how does the GI50 [1] read?
The GI50 was 52.7 µM (inactive).

And the GI50 [2]?
Its GI50 is > 100 µM (inactive).

What about the GI50 [3] of the same compound?
Its GI50 is > 100 µM (inactive).

And the GI50 [4]?
Its GI50 is > 100 µM (inactive).

And the GI50 [5]?
Its GI50 is > 100 µM (inactive).

And the GI50 [6]?
The GI50 was > 100 µM (inactive).

What about the GI50 [7] of the same compound?
Its GI50 is > 100 µM (inactive).

What about the GI50 [8] of the same compound?
The GI50 was > 100 µM (inactive).

What about the GI50 [9] of the same compound?
Its GI50 is > 100 µM (inactive).

And the GI50 [10]?
Its GI50 is > 100 µM (inactive).

What about the GI50 [11] of the same compound?
Its GI50 is > 100 µM (inactive).

And the GI50 [12]?
The GI50 was > 100 µM (inactive).

What about the GI50 [13] of the same compound?
Its GI50 is > 100 µM (inactive).

And the GI50 [14]?
Its GI50 is > 100 µM (inactive).

What about the GI50 [15] of the same compound?
Its GI50 is > 100 µM (inactive).

What about the GI50 [16] of the same compound?
Its GI50 is > 100 µM (inactive).

What about the GI50 [17] of the same compound?
Its GI50 is > 100 µM (inactive).

What about the GI50 [18] of the same compound?
Its GI50 is > 100 µM (inactive).

`C=CC1=C(C)c2cc3[nH]c(c4c5nc(cc6[nH]c(cc1n2)c(C)c6CC)C(C)=C5C(=O)[C@@H]4C(=O)OC)[C@@H](CCC(=O)O)[C@@H]3C` was tested. Which GI50 [1] did it give?
The GI50 was 3.66 µM (inactive).

And the GI50 [2]?
The GI50 was 7.24 µM (inactive).

And the GI50 [3]?
Its GI50 is 2.82 µM (inactive).

What about the GI50 [4] of the same compound?
The GI50 was 2.5 µM (inactive).

And the GI50 [5]?
Its GI50 is 6.01 µM (inactive).

What about the GI50 [6] of the same compound?
Its GI50 is 1.21 µM (inactive).

And the GI50 [7]?
Its GI50 is 8.43 µM (inactive).

And the GI50 [8]?
Its GI50 is 12.2 µM (inactive).

What about the GI50 [9] of the same compound?
Its GI50 is 1.29 µM (inactive).

And the GI50 [10]?
The GI50 was 3.95 µM (inactive).

And the GI50 [11]?
The GI50 was 2.55 µM (inactive).

What about the GI50 [12] of the same compound?
Its GI50 is 2 µM (inactive).

And the GI50 [13]?
The GI50 was 3.06 µM (inactive).

And the GI50 [14]?
Its GI50 is 2.21 µM (inactive).

What about the GI50 [15] of the same compound?
Its GI50 is 2.81 µM (inactive).

What about the GI50 [16] of the same compound?
Its GI50 is 1 µM (active).

What about the GI50 [17] of the same compound?
The GI50 was 1.64 µM (inactive).

And the GI50 [18]?
The GI50 was 1.42 µM (inactive).

Which results are given for `CC(C)c1cc(CN(C)C)c(O)c(C(C)(C)C)c1`?
GI50 [1]: 22.6 µM (inactive); GI50 [2]: 47.1 µM (inactive); GI50 [3]: 35.1 µM (inactive); GI50 [4]: 20.2 µM (inactive); GI50 [5]: 21.5 µM (inactive); GI50 [6]: 16.4 µM (inactive); GI50 [7]: 36.2 µM (inactive); GI50 [8]: 22.2 µM (inactive); GI50 [9]: 18.8 µM (inactive); GI50 [10]: 23.2 µM (inactive); GI50 [11]: 20.7 µM (inactive); GI50 [12]: 16.1 µM (inactive); GI50 [13]: 16.4 µM (inactive); GI50 [14]: 34.7 µM (inactive); GI50 [15]: 17.3 µM (inactive); GI50 [16]: 26.2 µM (inactive); GI50 [17]: 28.1 µM (inactive); GI50 [18]: 14.9 µM (inactive)

Which results are given for `COc1ccc(Oc2cnn(C(Br)(Br)C(C)=O)c(=O)c2Br)cc1`?
GI50 [1]: 26.1 µM (inactive); GI50 [2]: 18.5 µM (inactive); GI50 [3]: 13.5 µM (inactive); GI50 [4]: 4.56 µM (inactive); GI50 [5]: 21.4 µM (inactive); GI50 [6]: 1.82 µM (inactive); GI50 [7]: 15.3 µM (inactive); GI50 [8]: 17.1 µM (inactive); GI50 [9]: 6.08 µM (inactive); GI50 [10]: 24 µM (inactive); GI50 [11]: 24.8 µM (inactive); GI50 [12]: 16.8 µM (inactive); GI50 [13]: 13.9 µM (inactive); GI50 [14]: 17.9 µM (inactive); GI50 [15]: 18.8 µM (inactive); GI50 [16]: 0.861 µM (active); GI50 [17]: 16 µM (inactive); GI50 [18]: 16 µM (inactive)

How did the GI50 [1] turn out when `CCOC(=O)c1cc(C#N)[nH]c1-c1ccsc1` was run?
Its GI50 is 25.7 µM (inactive).

What about the GI50 [2] of the same compound?
The GI50 was 40.4 µM (inactive).

And the GI50 [3]?
The GI50 was 38.5 µM (inactive).

What about the GI50 [4] of the same compound?
The GI50 was 31.3 µM (inactive).

What about the GI50 [5] of the same compound?
Its GI50 is 44.3 µM (inactive).

And the GI50 [6]?
The GI50 was 21.5 µM (inactive).

What about the GI50 [7] of the same compound?
Its GI50 is 28.8 µM (inactive).

What about the GI50 [8] of the same compound?
Its GI50 is 37.4 µM (inactive).

What about the GI50 [9] of the same compound?
Its GI50 is 17.3 µM (inactive).

What about the GI50 [10] of the same compound?
The GI50 was 31.7 µM (inactive).

And the GI50 [11]?
The GI50 was 42.7 µM (inactive).

What about the GI50 [12] of the same compound?
Its GI50 is 29.8 µM (inactive).

And the GI50 [13]?
The GI50 was 25.8 µM (inactive).

What about the GI50 [14] of the same compound?
Its GI50 is 35.5 µM (inactive).

And the GI50 [15]?
Its GI50 is 32.2 µM (inactive).

What about the GI50 [16] of the same compound?
The GI50 was 15.3 µM (inactive).

And the GI50 [17]?
The GI50 was 40.2 µM (inactive).

What about the GI50 [18] of the same compound?
Its GI50 is 34.9 µM (inactive).
